The data set concerns the target Plk1 (Homo sapiens, UniProt P53350). Put plainly: Plk1 inhibition assay (radioactive-phosphate incorporation). Conditions: for activity in the Plk1 radioactive incorporation assay (in words): test compound typically starting from 10 μM; for solubility under the Plk1 assay conditions: Plk1 radioactive incorporation assay conditions.

Experimental findings from patent publication US8394952B2 (Vertex Pharmaceuticals Incorporated, priority 2006, dated 2013) are described below.

Chain of Plk1 (P53350 20-338): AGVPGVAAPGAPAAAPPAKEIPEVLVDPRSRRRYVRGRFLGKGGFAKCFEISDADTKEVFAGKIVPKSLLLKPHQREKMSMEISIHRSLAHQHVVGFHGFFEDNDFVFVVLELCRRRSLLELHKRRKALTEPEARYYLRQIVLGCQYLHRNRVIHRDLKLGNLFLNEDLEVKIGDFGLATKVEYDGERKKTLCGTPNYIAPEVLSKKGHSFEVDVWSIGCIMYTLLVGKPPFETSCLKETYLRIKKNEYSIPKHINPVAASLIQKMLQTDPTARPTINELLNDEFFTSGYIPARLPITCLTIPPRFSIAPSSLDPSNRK

As to `CCOC(=O)N1CCC(Nc2ncc3c(n2)N(C2CCCC2)CCC(=O)N3C)CC1` [Compound I-13, Ethyl 4-(9-cyclopentyl-6,7,8,9-tetrahydro-5-methyl-6-oxo-5H-pyrimido[4,5-b][1,4]diazepin-2-ylamino)piperidin-1-carboxylate], the “activity in the Plk1 radioactive incorporation assay (in words)” value is reported as “not active within the limits of the assay”.

Regarding `COc1cc(C(=O)O)ccc1Oc1ncc2c(n1)N(C1CCCC1)CC(C)(C)C(=O)N2C` [Compound I-107, 4-(9-cyclopentyl-6,7,8,9-tetrahydro-5,7,7-trimethyl-6-oxo-5H-pyrimido[4,5-b][1,4]diazepin-2-yloxy)-3-methoxybenzoic acid], the “activity in the Plk1 radioactive incorporation assay (in words)” value is “not active within the limits of the assay”. `CNC(=O)c1ccc(Nc2ncc3c(n2)N(C2CCCC2)CC(C)(C)C(=O)N3C)nc1` [Compound I-126, 6-(9-cyclopentyl-6,7,8,9-tetrahydro-5,7,7-trimethyl-6-oxo-5H-pyrimido[4,5-b][1,4]diazepin-2-ylamino)-N-methylpyridine-3-carboxamide]: the “solubility under the Plk1 assay conditions” value is “not soluble under the assay conditions”. As to `CNC(=O)c1ccc(Nc2ncc3c(n2)N(C2CCCC2)CC(C)(C)C(=O)N3C)c(OC(F)(F)F)c1` [Compound I-142, 4-(9-Cyclopentyl-6,7,8,9-tetrahydro-5,7,7-trimethyl-6-oxo-5H-pyrimido[4,5-b][1,4]diazepin-2-ylamino)-N-methyl-3-(trifluoromethoxy)benzamide], the “solubility under the Plk1 assay conditions” value is “not soluble under the assay conditions”.
